Data: US12139492B2 (Endotarget Inc., priority 2021, dated 2024)

Tests used:
Type in all cases: cell-based
Mino cells = assay: Antiproliferative effect, MTS cell viability assay, Mino cells; settings: Homo sapiens, MINO, Mino mantle cell lymphoma cells; read-out: IC50 (anti-proliferation) Mino cells
Outline: (§1)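 Steps: seed B-cell lymphoma line; add compound at 0, 0.001, 0.01, 0.1, 1 or 10 μM; incubate 72 h; add MTS and read reduced tetrazolium (formazan) absorbance at 490 nm.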

JeKo-1 cells = assay: Antiproliferative effect, MTS cell viability assay, JeKo-1 cells; settings: Homo sapiens; JeKo-1 mantle cell lymphoma cells; read-out: IC50 (anti-proliferation) JeKO-1 cells
Outline: as §1

BTK = BTK (Homo sapiens, UniProt Q06187); assay: BTK degradation, DC50 and Dmax of Table 1 (cell line not given); set-up: endogenous in cells; settings: for DC50: concentration giving 50% reduction of BTK expression level
Sequence of BTK (Q06187 whole entry): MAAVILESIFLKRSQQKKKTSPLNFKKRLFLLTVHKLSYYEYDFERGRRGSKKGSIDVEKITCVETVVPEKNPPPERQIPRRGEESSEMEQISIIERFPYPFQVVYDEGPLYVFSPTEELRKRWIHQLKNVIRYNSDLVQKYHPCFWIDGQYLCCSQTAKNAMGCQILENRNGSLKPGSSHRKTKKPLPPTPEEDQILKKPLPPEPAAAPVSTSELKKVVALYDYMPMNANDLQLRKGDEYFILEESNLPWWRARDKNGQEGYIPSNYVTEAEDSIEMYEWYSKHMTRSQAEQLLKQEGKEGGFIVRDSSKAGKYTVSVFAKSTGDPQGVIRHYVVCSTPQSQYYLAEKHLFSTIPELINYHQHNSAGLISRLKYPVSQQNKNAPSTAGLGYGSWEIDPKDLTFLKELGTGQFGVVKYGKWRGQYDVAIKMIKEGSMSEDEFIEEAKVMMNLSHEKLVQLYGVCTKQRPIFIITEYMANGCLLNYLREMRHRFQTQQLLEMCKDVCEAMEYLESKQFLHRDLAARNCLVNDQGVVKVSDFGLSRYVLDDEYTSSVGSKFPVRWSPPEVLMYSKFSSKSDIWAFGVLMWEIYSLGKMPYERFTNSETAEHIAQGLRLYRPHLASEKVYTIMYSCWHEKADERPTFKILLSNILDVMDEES

SMILES | IC50 (Mino cells) [nM] | IC50 (JeKo-1 cells) [nM] | Dmax (BTK) [%] | DC50 (BTK) [nM]
Nc1ncnc2c1c(-c1ccc(Oc3ccccc3)cc1)nn2[C@@H]1CCCN(C2CCN(C(=O)N3CCN(CCN4CCN(c5ccc6c(c5)CN(C5CCC(=O)NC5=O)C6=O)CC4)CC3)CC2)C1 (stereo partly drawn) [Compound 176, 3-(5-(4-(2-(4-((R)-3-(4-amino-3-(4-phenoxyphenyl)-1H-pyrazolo[3,4-d]pyrimidin-1-yl)-[1,4′-bipiperidine]-1′-carbonyl)piperazin-1-yl)ethyl)piperazin-1-yl)-1-oxoisoindolin-2-yl)piperidine-2,6-dione] | 1000 to 10000 | 1000 to 10000 | > 90 | > 50
Nc1ncnc2c1c(-c1ccc(Oc3ccccc3)cc1)nn2[C@@H]1CCCN(C2CCN(C(=O)N3CCN(CCC4CCN(c5ccc6c(c5)C(=O)N(C5CCC(=O)NC5=O)C6=O)CC4)CC3)CC2)C1 (stereo partly drawn) [Compound 177, 5-(4-(2-(4-((R)-3-(4-amino-3-(4-phenoxyphenyl)-1H-pyrazolo[3,4-d]pyrimidin-1-yl)-[1,4′-bipiperidine]-1′-carbonyl)piperazin-1-yl)ethyl)piperidin-1-yl)-2-(2,6-dioxopiperidin-3-yl)isoindoline-1,3-dione] | 1000 to 10000 | 1000 to 10000 | > 90 | 10 to 50
Nc1ncnc2c1c(-c1ccc(Oc3ccccc3)cc1)nn2[C@@H]1CCCN(C2CCN(C(=O)N3CCN(CCC4CCN(c5ccc6c(c5)CN(C5CCC(=O)NC5=O)C6=O)CC4)CC3)CC2)C1 (stereo partly drawn) [Compound 178, 3-(5-(4-(2-(4-((R)-3-(4-amino-3-(4-phenoxyphenyl)-1H-pyrazolo[3,4-d]pyrimidin-1-yl)-[1,4′-bipiperidine]-1′-carbonyl)piperazin-1-yl)ethyl)piperidin-1-yl)-1-oxoisoindolin-2-yl)piperidine-2,6-dione] | > 10000 | > 10000 | > 75 | > 50
Nc1ncnc2c1c(-c1ccc(Oc3ccccc3)cc1)nn2[C@@H]1CCCN(C2CCN(C(=O)N3CCN(CCN4CCC(c5ccc6c(c5)C(=O)N(C5CCC(=O)NC5=O)C6=O)CC4)CC3)CC2)C1 (stereo partly drawn) [Compound 179, 5-(1-(2-(4-((R)-3-(4-amino-3-(4-phenoxyphenyl)-1H-pyrazolo[3,4-d]pyrimidin-1-yl)-[1,4′-bipiperidine]-1′-carbonyl)piperazin-1-yl)ethyl)piperidin-4-yl)-2-(2,6-dioxopiperidin-3-yl)isoindoline-1,3-dione] | 1000 to 10000 | > 10000 | > 75 | 10 to 50
Nc1ncnc2c1c(-c1ccc(Oc3ccccc3)cc1)nn2[C@@H]1CCCN(C2CCN(C(=O)N3CCN(CCN4CCC(c5ccc6c(c5)CN(C5CCC(=O)NC5=O)C6=O)CC4)CC3)CC2)C1 (stereo partly drawn) [Compound 180, 3-(5-(1-(2-(4-((R)-3-(4-amino-3-(4-phenoxyphenyl)-1H-pyrazolo[3,4-d]pyrimidin-1-yl)-[1,4′-bipiperidine]-1′-carbonyl)piperazin-1-yl)ethyl)piperidin-4-yl)-1-oxoisoindolin-2-yl)piperidine-2,6-dione] | 1000 to 10000 | > 10000 | > 75 | 10 to 50
Nc1ncnc2c1c(-c1ccc(Oc3ccccc3)cc1)nn2[C@@H]1CCCN(C2CCN(C(=O)N3CCC(CCN4CCN(c5ccc6c(c5)CN(C5CCC(=O)NC5=O)C6=O)CC4)CC3)CC2)C1 (stereo partly drawn) [Compound 182, 3-(5-(4-(2-(1-((R)-3-(4-amino-3-(4-phenoxyphenyl)-1H-pyrazolo[3,4-d]pyrimidin-1-yl)-[1,4′-bipiperidine]-1′-carbonyl)piperidin-4-yl)ethyl)piperazin-1-yl)-1-oxoisoindolin-2-yl)piperidine-2,6-dione] | 1000 to 10000 | 1000 to 10000 | > 75 | 10 to 50
Nc1ncnc2c1c(-c1ccc(Oc3ccccc3)cc1)nn2[C@@H]1CCCN(C2CCN(C(=O)N3CCC(CCN4CCC(c5ccc6c(c5)C(=O)N(C5CCC(=O)NC5=O)C6=O)CC4)CC3)CC2)C1 (stereo partly drawn) [Compound 183, 5-(1-(2-(1-((R)-3-(4-amino-3-(4-phenoxyphenyl)-1H-pyrazolo[3,4-d]pyrimidin-1-yl)-[1,4′-bipiperidine]-1′-carbonyl)piperidin-4-yl)ethyl)piperidin-4-yl)-2-(2,6-dioxopiperidin-3-yl)isoindoline-1,3-dione] | 1000 to 10000 | > 10000 | > 75 | 10 to 50
Nc1ncnc2c1c(-c1ccc(Oc3ccccc3)cc1)nn2[C@@H]1CCCN(C2CCN(C(=O)N3CCC(CCN4CCC(c5ccc6c(c5)CN(C5CCC(=O)NC5=O)C6=O)CC4)CC3)CC2)C1 (stereo partly drawn) [Compound 184, 3-(5-(1-(2-(1-((R)-3-(4-amino-3-(4-phenoxyphenyl)-1H-pyrazolo[3,4-d]pyrimidin-1-yl)-[1,4′-bipiperidine]-1′-carbonyl)piperidin-4-yl)ethyl)piperidin-4-yl)-1-oxoisoindolin-2-yl)piperidine-2,6-dione] | 1000 to 10000 | 1000 to 10000 | > 90 | 10 to 50
Nc1ncnc2c1c(-c1ccc(Oc3ccccc3)cc1)nn2[C@@H]1CCCN(C2CCN(C(=O)N3CCC(CCC4CCN(c5ccc6c(c5)C(=O)N(C5CCC(=O)NC5=O)C6=O)CC4)CC3)CC2)C1 (stereo partly drawn) [Compound 185, 5-(4-(2-(1-((R)-3-(4-amino-3-(4-phenoxyphenyl)-1H-pyrazolo[3,4-d]pyrimidin-1-yl)-[1,4′-bipiperidine]-1′-carbonyl)piperidin-4-yl)ethyl)piperidin-1-yl)-2-(2,6-dioxopiperidin-3-yl)isoindoline-1,3-dione] | > 10000 | > 10000 | > 75 | 10 to 50
Nc1ncnc2c1c(-c1ccc(Oc3ccccc3)cc1)nn2[C@@H]1CCCN(C2CCN(C(=O)N3CCC(CCC4CCN(c5ccc6c(c5)CN(C5CCC(=O)NC5=O)C6=O)CC4)CC3)CC2)C1 (stereo partly drawn) [Compound 186, 3-(5-(4-(2-(1-((R)-3-(4-amino-3-(4-phenoxyphenyl)-1H-pyrazolo[3,4-d]pyrimidin-1-yl)-[1,4′-bipiperidine]-1′-carbonyl)piperidin-4-yl)ethyl)piperidin-1-yl)-1-oxoisoindolin-2-yl)piperidine-2,6-dione] | 1000 to 10000 | 1000 to 10000 | > 75 | 10 to 50
Nc1ncnc2c1c(-c1ccc(Oc3ccccc3)cc1)nn2[C@@H]1CCCN(C2CCN(C(=O)N3CCN(CCCN4CCN(c5ccc6c(c5)C(=O)N(C5CCC(=O)NC5=O)C6=O)CC4)CC3)CC2)C1 (stereo partly drawn) [Compound 187, 5-(4-(3-(4-((R)-3-(4-amino-3-(4-phenoxyphenyl)-1H-pyrazolo[3,4-d]pyrimidin-1-yl)-[1,4′-bipiperidine]-1′-carbonyl)piperazin-1-yl)propyl)piperazin-1-yl)-2-(2,6-dioxopiperidin-3-yl)isoindoline-1,3-dione] | 1000 to 10000 | 1000 to 10000 | > 75 | > 50
Nc1ncnc2c1c(-c1ccc(Oc3ccccc3)cc1)nn2[C@@H]1CCCN(C2CCN(C(=O)N3CCN(CCCN4CCN(c5ccc6c(c5)CN(C5CCC(=O)NC5=O)C6=O)CC4)CC3)CC2)C1 (stereo partly drawn) [Compound 188, 3-(5-(4-(3-(4-((R)-3-(4-amino-3-(4-phenoxyphenyl)-1H-pyrazolo[3,4-d]pyrimidin-1-yl)-[1,4′-bipiperidine]-1′-carbonyl)piperazin-1-yl)propyl)piperazin-1-yl)-1-oxoisoindolin-2-yl)piperidine-2,6-dione] | 1000 to 10000 | 1000 to 10000 | > 75 | > 50
